Measurements as given in US6362171B1, “Aminoaklanoyl-linked conjugates of 2′,5′-oligoadenylate and antiviral uses thereof” (priority 1997, dated 2002).
Where “and” joins values, the source holds several entries; their conditions need not be identical. Identical values can stand only once.

Assays:
HIV-1 strain IIIB = test: Infected centers assay: inhibition of HIV-1 induced syncytia formation (HIV-1 replication); type: cell-based; conditions: 300 μM compound; PBL treated 2 hours, infected with HIV-1 IIIB, co-cultured with Sup T1 cells, read at 72 hours; control 144 syncytia/10^4 cells; mean of triplicate
Experimental: The infected centers assay as described by Henderson et al., Virology 1991, 182, 186, was used to measure the ability of the conjugated trimer core compounds of the invention to inhibit HIV-1 induced syncytia formation, an indicator of HIV-1 replication in T cells. […] The infected PBL were maintained in RPMI-1640 medium supplemented with 10% (v/v) heat-inactivated fetal calf serum at 37° C. in a humidified 5% CO2 in air atmosphere. After 48 hours, the cells were washed twice in Hank's balanced salt solution, serially diluted and seeded into multiple wells of a 96-well microtiter plate. Immediately, 2×10^5 exponentially growing Sup T1 cells were added to each well; Sup T1 cells readily form a syncytium with a cell which is productively infected with HIV-1. The wells were examined daily for the presence of syncytia, using a tissue culture microscope. The first signs of syncytia formation can be seen in 12 hours, with some complete syncytia developing by 24 hours. Final results were read at 72 hours. Each syncytium was counted as a single infected cell. The number of syncytia per seeded cell was determined and expressed as an infected center per infected cell. The number of syncytia per […] was 144 for the control Sup T1 cells.

[1] = target: T1, HIV-1 reverse transcriptase (HIV-1 RT) (Human immunodeficiency virus type 1 group M subtype B, UniProt P04585); test: Inhibition of HIV-1 reverse-transcriptase activity in culture supernatant of infected Sup T1 cells; type: cell-based; conditions: for Inhibition of HIV-1 RT activity: 300 μM compound, Sup T1 cells treated 6 hours, supernatant at 96 hours post-infection, mean of duplicate
T1 construct: culture supernatant was removed and HIV-1 RT activity was assayed in triplicate; endogenous in cells; host or cells: Sup T1 cells infected with HIV-1; virion-associated enzyme in the culture supernatant

[2] = target: recombinant human GST-RNase L (Homo sapiens, UniProt Q05823); conditions: 10 μM compound; mean of duplicate
RNase L = target: T2, RNase L (Homo sapiens, UniProt Q05823); conditions: literature ref [10]; cited from earlier work
T2 sequence (Q05823 1-741): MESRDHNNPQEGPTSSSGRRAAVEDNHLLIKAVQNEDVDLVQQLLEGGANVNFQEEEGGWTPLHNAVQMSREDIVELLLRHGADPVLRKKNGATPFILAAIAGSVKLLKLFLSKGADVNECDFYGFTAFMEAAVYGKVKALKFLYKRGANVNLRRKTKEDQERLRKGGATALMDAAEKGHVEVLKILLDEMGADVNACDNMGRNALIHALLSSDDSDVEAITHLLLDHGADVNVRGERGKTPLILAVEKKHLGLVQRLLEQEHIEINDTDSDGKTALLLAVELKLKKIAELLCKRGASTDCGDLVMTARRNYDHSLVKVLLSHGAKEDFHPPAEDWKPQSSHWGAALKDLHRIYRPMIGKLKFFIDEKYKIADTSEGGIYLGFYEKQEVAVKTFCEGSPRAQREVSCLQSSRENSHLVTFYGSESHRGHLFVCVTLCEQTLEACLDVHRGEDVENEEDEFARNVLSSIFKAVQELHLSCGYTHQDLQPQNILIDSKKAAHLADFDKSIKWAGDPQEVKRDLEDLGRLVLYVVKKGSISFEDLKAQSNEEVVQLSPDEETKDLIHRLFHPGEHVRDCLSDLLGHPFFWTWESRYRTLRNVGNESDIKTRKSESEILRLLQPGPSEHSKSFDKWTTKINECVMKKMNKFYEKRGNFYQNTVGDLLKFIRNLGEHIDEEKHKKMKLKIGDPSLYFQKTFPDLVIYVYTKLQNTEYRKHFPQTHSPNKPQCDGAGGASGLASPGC

HIV-1 = conditions: literature ref [11]; cited from earlier work

Row | Compound | Inhibition of syncytia formation (fold reduction in infection) (HIV-1 strain IIIB) | inhibition at 300 µM ([1]; SUP-T1, read-out: Inhibition of HIV-1 RT activity) [%] | Inhibition of HIV-1 RT activity [1] [%] | Activation of RNase L (percent hydrolysis of poly(U)-3′-[32P]pCp) [2] [%] | Activation of RNase L (RNase L) | HIV-1 production (HIV-1)
1 | Nc1ncnc2c1ncn2[C@@H]1O[C@H](CO)C[C@H]1O [Cordycepin] | 1.5 fold | 13 | – | – | – | –
2 | Nc1nc2ncc(CNc3ccc(C(=O)N[C@@H](CCC(=O)NCCCCCC(=O)O[C@@H]4C[C@@H](COP(=O)(O)O[C@@H]5C[C@@H](COP(=O)(O)O[C@@H]6C[C@@H](CO)O[C@H]6n6cnc7c(N)ncnc76)O[C@H]5n5cnc6c(N)ncnc65)O[C@H]4n4cnc5c(N)ncnc54)C(=O)O)cc3)nc2c(=O)[nH]1 [compound 26] | 2.4 fold | – | 45 | – | – | –
3 | Nc1nc2ncc(CNc3ccc(C(=O)N[C@@H](CCC(=O)NCCCCCC(=O)OC[C@H]4O[C@@H](n5cnc6c(N)ncnc65)[C@H](OP(=O)(O)OC[C@@H]5C[C@@H](OP(=O)(O)OC[C@@H]6C[C@@H](O)[C@H](n7cnc8c(N)ncnc87)O6)[C@H](n6cnc7c(N)ncnc76)O5)[C@@H]4O)C(=O)O)cc3)nc2c(=O)[nH]1 [compound 33] | 7.5 fold and 7.2 fold | – | 81 | 35 | – | –
4 | (2′-5′)d^3′(A-A-A) [CCC] | 4.8 fold | – | 96 | 12 | no activation | inhibits HIV-1 production
